Entries after “also recorded” stand apart in the source; their conditions may differ. Like-named read-outs stand apart in the source and are kept apart here.
Legend:
[1] = tested on: different S. aureus isolates (50128509, BH30(04), 50307270, BH30(04) spa, 50046981); experiment: Inhibition of adherence of different S. aureus isolates; format: cell-based, Staphylococcus aureus; conditions: MRSA, rifampicin-resistant, tetracycline resistant and methicillin sensitive isolates
Source text: The inhibitory properties of ATA on different S. aureus isolates have been determined using the following strains: 50128509 (MRSA; source: HZI Braunschweig), BH30(04) (MRSA; biofilm positive; SCCmec type II; MLST type 8; CC8; kindly provided by Prof. Jim O'Gara), 50307270 (rifampicin-resistant; source HZI Braunschweig), BH30(04) spa (tetracycline resistant; kindly provided by Prof. Jim O'Gara), 50046981 (methicllin sensitive; source: HZI Braunschweig).
Adherence has been determined as described above.

S. aureus N315 [2] = experiment: Inhibition of adherence of S. aureus N315 on human primary nasal epithelial cells; format: cell-based, Staphylococcus aureus; conditions: 1 μg/ml ATA
Protocol: The experiments with the human nasal primary cells (HNEPC, Provitro GmbH, Berlin) were used as described for the A-549 cells and used for up to four passages (corresponding to approx. four weeks). For the HNEPC, Airway epithelial cell growth medium (Provitro GmbH, Berlin) was used.
Following the general procedure as described above, the properties of ATA on inhibiting adhesion of S. aureus N315 on human primary epithelial cells was investigated. ATA was added at different concentrations to the culture and adherence was determined as described before. Already a concentration of 1 μg/ml ATA is sufficient to reduce the adherence of S. aureus to about 45%.

MRSA strain N315 = experiment: Anti-bacterial activity / growth curves of MRSA strain N315; format: cell-based, Staphylococcus aureus
Source text: That is, it has been recognized that ATA is able to inhibit adherence of bacteria, like S. aureus, including MRSA strains while not showing an anti-bacterial activity.

S. aureus N315 [3] = experiment: Adhesion test: inhibition of adherence of S. aureus N315 on A549 cells; format: cell-based, Staphylococcus aureus; conditions: for Reduction of adhesion [%]: S. aureus on A549 cells
Protocol: S. aureus (N315) was precultivated on blood agar plates at 37° C. overnight. A colony was picked from the plate with a sterile loop and transferred into 5 ml of BHI medium. The suspension was incubated aerobically at 37° C. for 18 h. After this time the bacterial suspension was centrifugated and the clear medium was decanted off. The pellet was resuspended in PBS and centrifugated again twice. Finally the pellet was resuspended in infection medium at an OD of 1.0 at 600 nm.
Infection medium: Gibco RPMI 1640medium, pH 7.4 (Invitrogen, Carlsbad, USA), containing 1% FBS and 20 mM Hepes.
All media that were used were prewarmed to 37° C. The cell line A-549 was utilized. A-549 cells from a stock that was stored at −196° C. were quickly thawed and suspended in 10 ml of cell culture medium (DMEM (Lonza, Basel, Schweiz) containing 10% FBS (Invitrogen, Carlsbad, USA)). They were cultivated at 37° C. with 10% CO2 in cell culture bottles with a surface of 25 cm^2 under moisture saturation. The next day, the medium was removed and fresh medium was added. The cells were harvested at a confluency state of 80-90% by scrapping them off the bottom of the bottles and pipetting the suspension up and down several times. An aliquot was transferred into a fresh cell culture bottle with fresh medium. After another round of growth to 80-90% confluency the medium was removed and the cell layer was washed with 10 ml of sterile EBSS (Invitrogen). After removing the liquid, 1 ml of a 1% solution of trypsin was evenly distributed over the cell layer. After an incubation for 5 min at 37° C. and a visible detachment of the cell layer, 10 ml of fresh cell culture medium were added, the cells were resuspended and counted in a Neubauer cell counting chamber. A cell density of 100,000 /ml was adjusted and 100 μl of the cell suspension was distributed into the wells of a 96-well microtiter plate. The plate was incubated at 37° C. with 10% CO2 and moisture saturation until the cells had formed an adherent monolayer with 95-100% confluency (4-5 days). The medium was removed by pipetting and 75 μl of fresh infection medium were added to each well, followed by 25 μl of a bacterial suspension (OD600 1.0), together with different concentrations of the test compound. After an incubation time of 60 min at room temperature the medium and non-adherent bacteria were removed with a pipette and the wells were washed three times with PBS.
For fixing the cells a solution of 4% paraformaldehyde in PBS was added and incubated for 20 min at room temperature. After removing the solution and washing the cells with PBS twice, a primary antibody against S. aureus lipoteichoic acid (from rabbit, Acris Antibodies GmbH, Herford) at 1:5000 dilution in 1% BSA-PBS was added (50 μl/Well) and incubated for 45 min at room temperature. During the last 10 min of this incubation an additional 50 μl/well of a solution of DAPI ((4′,6 Diamidino-2-phenylindol)dihydrochloride) in PBS (final concentration 1 μg/ml) was added. After a washing step an incubation with the HRP-conjugated secondary antibody (goat anti rabbit, Dianova) in 1% BSA-PBS for 45 min at room temperature was carried out. For detection of chemiluminescence the BM chemiluminescence ELISA substrate (POD—peroxidase-based secondary detection systems, Roche) was used. Chemiluminescence was determined immediately after addition of the substrate with a chemiluminescence microtiter plate reader.
The detection and quantification of the adherent bacteria can also be carried out with a fluorescence-coupled secondary antibody, for which Alexa Fluor 488 goat anti rabbit at 1:1000 dilution was used. The determination of fluorescence was done after washing with PBS and adding 100 μl PBS per well with a fluorescence microtiter plate reader at 485/530 nm.
Another and very favourable way to quantify the adherent bacteria is the utilization of an automatic microscope.
The procedure is described for the ImageXpress Micro (IXM, Molecular Devices) […]

host cells = experiment: Effects on host cells; format: cell-based
S. aureus = experiment: Influence of ATA on S. aureus already adhering to A549 cells; format: cell-based, Staphylococcus aureus
Protocol: Black bars represent 0.95 μg/ml ATA and white bars represent 2.2 μg/ml. A549 cells were incubated with S. aureus for 1 hour in advance and then ATA was added. Shown are the results for adherence after incubation with ATA for the time period indicated in the graph.
All media that were used were prewarmed to 37° C. The cell line A-549 was utilized. A-549 cells from a stock that was stored at −196° C. were quickly thawed and suspended in 10 ml of cell culture medium (DMEM (Lonza, Basel, Schweiz) containing 10% FBS (Invitrogen, Carlsbad, USA)). They were cultivated at 37° C. with 10% CO2 in cell culture bottles with a surface of 25 cm^2 under moisture saturation. […] After an incubation for 5 min at 37° C. and a visible detachment of the cell layer, 10 ml of fresh cell culture medium were added, the cells were resuspended and counted in a Neubauer cell counting chamber. […]
For fixing the cells a solution of 4% paraformaldehyde in PBS was added and incubated for 20 min at room temperature. […] Chemiluminescence was determined immediately after addition of the substrate with a chemiluminescence microtiter plate reader.
Next, the influence of ATA at two different concentrations corresponding to the IC50 and IC90 values determined in Example 2, on adhering S. aureus cells has been determined. […] The adhesion has been calculated on the basis of 100% adhesion in the absence of ATA.

[4] = Staphylococcus aureus, N315, A549
[5] = adhesion of S. aureus N315 on A549 cells

## O=C(O)C1=CC(=C(c2ccc(O)c(C(=O)O)c2)c2ccc(O)c(C(=O)O)c2)C=CC1=O [ATA, aurintricarboxylic acid]
[1]
  inhibitory activity on adherence of different S. aureus strains: effective on different types of S. aureus strains
S. aureus N315 [2]
  adherence of S. aureus: about 45%
MRSA strain N315; 40 ug/ml, FIG. 6
  anti-bacterial effect (growth curves of MRSA strain N315): does not have an anti-bacterial effect
MRSA strain N315; 48 μg/ml, FIG. 6
  influence on growth of the MRSA strain: does not significantly influence growth
MRSA strain N315; concentration up to 100 μg/ml
  anti-bacterial activity: no anti-bacterial activity is present; also recorded: does not show anti-bacterial activity
S. aureus N315 [3]; 100 μM
  Reduction of adhesion [%]: >90%
S. aureus N315 [3]; [4]
  IC50: 0.95 µg/mL
  IC90: ~2.2 µg/mL
S. aureus N315 [3]; [5]
  IC10: ~0.45 µg/mL
S. aureus N315 [3]; ≦50 μM
  Reduction of adhesion [%]: >90%
Host cells
  effects on host cells: no remarkable effects have been observed on host cells
S. aureus; 2.2 μg/ml ATA added after 1 hour pre-incubation of A549 cells with S. aureus, after 3 hours
  percentage of adherence of S. aureus compared to the control with no ATA: below 40%
S. aureus; ATA at IC50 and IC90 concentrations added after 1 hour adherence to A549 cells
  eradication of S. aureus after adherence to cells: potent in eradicating S. aureus after adherence to cells

## Cc1cc(=O)c2c(O)c3c(O)cc(O)c4c5c(O)cc(O)c6c(O)c7c(=O)cc(CO)c8c1c2c(c34)c(c65)c78 [pseudohypericine]
S. aureus N315 [3]; 100 μM
  Reduction of adhesion [%]: >90%
S. aureus N315 [3]; [5]
  IC10: 20 µM
S. aureus N315 [3]; adhesion of S. aureus N315 on A549 cells, read-out: IC50
  IC50: 51 µM
S. aureus N315 [3]; adhesion of S. aureus N315 on A549 cells, read-out: IC90
  IC90: 80 µM
S. aureus N315 [3]; ≦50 μM
  Reduction of adhesion [%]: 50%

From patent US20140329780A1, “INHIBITOR OF COLONISATION OF MUCOSA” (HELMHOLTZ-ZENTRUM FUER INFEKTIONSFORSCHUNG GMBH, priority 2011, published 2014)
